In patent publication US12275731B2, “Azaindole inhibitors of wild-type and mutant forms of LRRK2” (DANA-FARBER CANCER INSTITUTE, INC., priority 2018, dated 2025):

Assays:
Test in all cases: KinomeScan profiling
Type in all cases: binding
ERK3 = ERK3 (Homo sapiens, UniProt Q16659); conditions: ERK3, 1 μM; read-out: % control
Summary of the method: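 Test agents were profiled at a single concentration of 1 μM (DMSO vehicle) on a near-complete set of 468 kinases. Signal is reported relative to vehicle (100%) and a fully displacing control (0%).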

CLK2 = CLK2 (Homo sapiens, UniProt P49760); conditions: CLK2, 1 μM; read-out: % control
Summary of the method: (§1)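 First, compounds in DMSO are added at 1 μM to each of 468 kinase assays. Next, RLU signals are normalised between positive control (0%) and DMSO (100%). Finally, kinases under 35% are flagged active.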

KIT(V559D, V654A) = molecular target: T1, KIT(V559D, V654A) (Homo sapiens, UniProt P10721, V559D/V654A); conditions: read-out: % control
T1 construct: purchased KinomeScan®
T1 sequence (P10721 26-976 V559D/V654A): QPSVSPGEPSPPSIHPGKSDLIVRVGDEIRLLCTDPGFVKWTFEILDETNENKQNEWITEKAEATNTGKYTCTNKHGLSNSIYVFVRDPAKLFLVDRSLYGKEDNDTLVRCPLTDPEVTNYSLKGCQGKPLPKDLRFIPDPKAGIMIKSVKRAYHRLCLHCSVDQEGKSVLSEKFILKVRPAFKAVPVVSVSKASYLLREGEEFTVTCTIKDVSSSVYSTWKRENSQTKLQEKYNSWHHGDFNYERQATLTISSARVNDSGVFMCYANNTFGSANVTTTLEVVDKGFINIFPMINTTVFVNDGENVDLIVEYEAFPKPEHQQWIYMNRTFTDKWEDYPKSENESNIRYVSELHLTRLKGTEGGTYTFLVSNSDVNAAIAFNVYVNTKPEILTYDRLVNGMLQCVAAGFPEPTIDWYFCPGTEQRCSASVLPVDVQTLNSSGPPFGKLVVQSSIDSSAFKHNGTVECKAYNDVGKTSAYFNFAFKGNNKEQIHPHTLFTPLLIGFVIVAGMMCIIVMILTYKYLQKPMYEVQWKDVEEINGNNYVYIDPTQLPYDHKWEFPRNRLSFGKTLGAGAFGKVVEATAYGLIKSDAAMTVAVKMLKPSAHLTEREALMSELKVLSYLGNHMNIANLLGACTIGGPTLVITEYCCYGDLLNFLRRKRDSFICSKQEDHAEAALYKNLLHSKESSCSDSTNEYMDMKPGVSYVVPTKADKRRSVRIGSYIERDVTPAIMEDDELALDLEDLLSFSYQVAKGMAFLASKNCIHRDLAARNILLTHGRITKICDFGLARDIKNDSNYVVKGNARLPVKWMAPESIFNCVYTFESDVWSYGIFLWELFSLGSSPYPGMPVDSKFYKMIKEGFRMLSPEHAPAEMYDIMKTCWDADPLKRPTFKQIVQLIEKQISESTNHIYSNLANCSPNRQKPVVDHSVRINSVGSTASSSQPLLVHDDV
Summary of the method: as §1

PIM3 = molecular target: T2, PIM3 (Homo sapiens, UniProt Q86V86); conditions: PIM3, 1 μM; read-out: % control
T2 construct: purchased KinomeScan® (panel service)
Summary of the method: as §1

LRRK2 = LRRK2 (Homo sapiens, UniProt Q5S007); conditions: LRRK2, 1 μM; read-out: % control
Sequence of LRRK2 (Q5S007 whole entry): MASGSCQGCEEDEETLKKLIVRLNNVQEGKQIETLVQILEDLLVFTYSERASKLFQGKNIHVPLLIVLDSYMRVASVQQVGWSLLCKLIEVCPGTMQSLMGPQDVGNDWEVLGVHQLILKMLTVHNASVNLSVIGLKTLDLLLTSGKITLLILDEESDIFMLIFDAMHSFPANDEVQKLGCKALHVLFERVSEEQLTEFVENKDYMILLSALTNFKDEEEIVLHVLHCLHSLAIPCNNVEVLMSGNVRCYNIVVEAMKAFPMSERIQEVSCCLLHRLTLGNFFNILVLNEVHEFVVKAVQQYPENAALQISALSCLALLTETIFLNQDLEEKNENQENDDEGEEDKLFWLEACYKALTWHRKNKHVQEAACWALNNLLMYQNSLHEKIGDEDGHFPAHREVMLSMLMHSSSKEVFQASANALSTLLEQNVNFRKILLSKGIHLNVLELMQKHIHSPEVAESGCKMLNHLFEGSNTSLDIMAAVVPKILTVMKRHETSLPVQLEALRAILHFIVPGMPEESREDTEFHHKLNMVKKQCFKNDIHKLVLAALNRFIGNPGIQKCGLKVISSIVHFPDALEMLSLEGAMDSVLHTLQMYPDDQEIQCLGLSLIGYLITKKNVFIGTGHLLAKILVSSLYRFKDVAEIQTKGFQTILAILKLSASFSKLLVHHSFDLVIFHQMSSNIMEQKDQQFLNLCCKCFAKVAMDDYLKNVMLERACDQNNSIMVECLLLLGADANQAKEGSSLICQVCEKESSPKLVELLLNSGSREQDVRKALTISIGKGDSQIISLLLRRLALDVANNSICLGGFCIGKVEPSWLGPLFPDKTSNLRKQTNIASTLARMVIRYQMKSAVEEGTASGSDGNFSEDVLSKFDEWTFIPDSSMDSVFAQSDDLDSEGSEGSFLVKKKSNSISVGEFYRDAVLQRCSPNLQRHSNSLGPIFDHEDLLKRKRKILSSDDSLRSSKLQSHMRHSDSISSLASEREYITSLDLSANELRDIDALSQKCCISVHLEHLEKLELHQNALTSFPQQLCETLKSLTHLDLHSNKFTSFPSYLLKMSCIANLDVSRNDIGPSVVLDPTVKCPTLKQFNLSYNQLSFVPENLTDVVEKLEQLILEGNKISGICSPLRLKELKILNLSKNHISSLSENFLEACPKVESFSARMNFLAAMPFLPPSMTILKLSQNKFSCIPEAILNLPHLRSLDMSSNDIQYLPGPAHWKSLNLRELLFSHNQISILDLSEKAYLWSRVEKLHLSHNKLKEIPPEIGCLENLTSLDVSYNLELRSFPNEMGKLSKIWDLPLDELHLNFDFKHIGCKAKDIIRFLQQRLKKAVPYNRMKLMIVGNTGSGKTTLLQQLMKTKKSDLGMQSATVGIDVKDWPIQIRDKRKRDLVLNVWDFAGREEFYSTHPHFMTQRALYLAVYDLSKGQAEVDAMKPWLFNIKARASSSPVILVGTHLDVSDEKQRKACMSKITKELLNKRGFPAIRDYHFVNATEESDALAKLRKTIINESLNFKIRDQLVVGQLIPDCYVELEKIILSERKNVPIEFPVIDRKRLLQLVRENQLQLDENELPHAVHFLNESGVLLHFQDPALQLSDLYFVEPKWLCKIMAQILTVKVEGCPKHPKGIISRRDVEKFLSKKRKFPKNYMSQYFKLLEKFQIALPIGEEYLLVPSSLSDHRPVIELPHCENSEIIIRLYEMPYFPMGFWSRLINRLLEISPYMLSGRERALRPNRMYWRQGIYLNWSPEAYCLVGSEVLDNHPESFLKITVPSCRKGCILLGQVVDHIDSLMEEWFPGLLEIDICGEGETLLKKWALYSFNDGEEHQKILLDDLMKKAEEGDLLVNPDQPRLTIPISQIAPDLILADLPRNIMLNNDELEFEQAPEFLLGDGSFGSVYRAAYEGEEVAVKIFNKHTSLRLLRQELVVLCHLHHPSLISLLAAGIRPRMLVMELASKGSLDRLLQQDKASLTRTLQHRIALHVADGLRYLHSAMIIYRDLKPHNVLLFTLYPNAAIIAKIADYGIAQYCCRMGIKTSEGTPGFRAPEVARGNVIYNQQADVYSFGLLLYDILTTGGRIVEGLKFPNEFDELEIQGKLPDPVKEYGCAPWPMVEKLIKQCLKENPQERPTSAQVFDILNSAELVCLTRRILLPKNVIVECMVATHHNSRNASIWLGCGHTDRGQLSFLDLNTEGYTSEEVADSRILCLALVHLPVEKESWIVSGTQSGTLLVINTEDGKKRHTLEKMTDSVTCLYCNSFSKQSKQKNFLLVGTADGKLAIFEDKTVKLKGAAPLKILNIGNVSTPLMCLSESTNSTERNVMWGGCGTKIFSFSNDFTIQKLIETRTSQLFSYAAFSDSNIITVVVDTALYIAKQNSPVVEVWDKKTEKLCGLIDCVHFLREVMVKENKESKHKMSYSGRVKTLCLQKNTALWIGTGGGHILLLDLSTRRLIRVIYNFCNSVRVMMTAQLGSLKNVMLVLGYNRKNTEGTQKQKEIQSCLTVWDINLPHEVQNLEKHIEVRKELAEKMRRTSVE
Summary of the method: as §1

MYO3B = molecular target: T3, MYO3B (Homo sapiens, UniProt Q8WXR4); conditions: read-out: % control
T3 sequence (Q8WXR4 1-1341): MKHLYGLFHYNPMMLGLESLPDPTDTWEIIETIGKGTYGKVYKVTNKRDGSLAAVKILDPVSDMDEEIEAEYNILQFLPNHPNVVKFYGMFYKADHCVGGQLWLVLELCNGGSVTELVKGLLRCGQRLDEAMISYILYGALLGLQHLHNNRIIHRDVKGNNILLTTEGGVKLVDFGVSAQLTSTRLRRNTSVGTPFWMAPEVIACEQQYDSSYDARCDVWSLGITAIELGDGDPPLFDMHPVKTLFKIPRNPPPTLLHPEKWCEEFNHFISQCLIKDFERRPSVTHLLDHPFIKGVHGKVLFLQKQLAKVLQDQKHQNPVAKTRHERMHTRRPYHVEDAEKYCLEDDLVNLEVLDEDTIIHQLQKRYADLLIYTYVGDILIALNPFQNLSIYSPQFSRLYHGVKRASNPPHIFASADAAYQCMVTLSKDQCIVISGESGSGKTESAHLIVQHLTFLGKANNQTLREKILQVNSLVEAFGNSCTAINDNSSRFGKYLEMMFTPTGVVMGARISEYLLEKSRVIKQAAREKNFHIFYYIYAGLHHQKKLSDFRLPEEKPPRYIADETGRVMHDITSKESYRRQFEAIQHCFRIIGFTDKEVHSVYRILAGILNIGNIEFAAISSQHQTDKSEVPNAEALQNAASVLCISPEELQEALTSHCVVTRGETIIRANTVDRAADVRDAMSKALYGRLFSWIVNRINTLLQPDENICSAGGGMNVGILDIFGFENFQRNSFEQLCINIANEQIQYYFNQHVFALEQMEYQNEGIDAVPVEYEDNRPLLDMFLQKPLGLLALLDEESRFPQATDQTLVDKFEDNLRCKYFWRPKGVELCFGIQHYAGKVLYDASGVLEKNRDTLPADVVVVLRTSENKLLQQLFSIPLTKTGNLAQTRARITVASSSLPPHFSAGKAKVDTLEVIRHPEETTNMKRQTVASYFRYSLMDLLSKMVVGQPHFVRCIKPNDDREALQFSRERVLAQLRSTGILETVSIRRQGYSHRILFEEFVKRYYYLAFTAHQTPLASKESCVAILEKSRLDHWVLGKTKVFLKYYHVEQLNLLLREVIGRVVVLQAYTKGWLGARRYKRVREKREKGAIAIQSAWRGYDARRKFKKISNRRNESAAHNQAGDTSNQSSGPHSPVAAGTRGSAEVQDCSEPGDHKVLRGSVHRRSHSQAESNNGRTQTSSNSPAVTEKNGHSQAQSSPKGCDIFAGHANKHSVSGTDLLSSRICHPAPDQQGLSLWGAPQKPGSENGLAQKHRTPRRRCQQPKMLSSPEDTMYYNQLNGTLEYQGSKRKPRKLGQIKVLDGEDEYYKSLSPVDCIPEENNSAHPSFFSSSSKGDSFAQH
Summary of the method: as §1

PIP5K1A = molecular target: T4, PIP5K1A (Homo sapiens, UniProt Q99755); conditions: read-out: % control
T4 construct: purchased KinomeScan® (panel service)
T4 sequence (Q99755 whole entry): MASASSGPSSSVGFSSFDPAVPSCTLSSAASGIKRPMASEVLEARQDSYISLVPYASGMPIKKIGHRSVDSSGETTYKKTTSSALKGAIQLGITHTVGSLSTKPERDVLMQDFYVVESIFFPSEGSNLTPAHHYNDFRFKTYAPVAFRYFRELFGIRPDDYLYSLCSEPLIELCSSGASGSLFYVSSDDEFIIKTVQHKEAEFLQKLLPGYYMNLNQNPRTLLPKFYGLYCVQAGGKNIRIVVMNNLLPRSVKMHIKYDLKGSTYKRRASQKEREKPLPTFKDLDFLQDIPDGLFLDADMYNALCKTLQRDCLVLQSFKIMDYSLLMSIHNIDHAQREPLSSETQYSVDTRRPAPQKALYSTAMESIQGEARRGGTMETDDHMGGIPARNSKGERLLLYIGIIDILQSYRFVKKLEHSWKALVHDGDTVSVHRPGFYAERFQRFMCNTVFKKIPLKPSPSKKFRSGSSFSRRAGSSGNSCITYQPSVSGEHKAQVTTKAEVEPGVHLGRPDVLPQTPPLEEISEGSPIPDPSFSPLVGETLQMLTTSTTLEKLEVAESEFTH
Summary of the method: as §1

MERTK = molecular target: T5, MERTK (Homo sapiens, UniProt Q12866); conditions: read-out: % control
T5 sequence (Q12866 21-999): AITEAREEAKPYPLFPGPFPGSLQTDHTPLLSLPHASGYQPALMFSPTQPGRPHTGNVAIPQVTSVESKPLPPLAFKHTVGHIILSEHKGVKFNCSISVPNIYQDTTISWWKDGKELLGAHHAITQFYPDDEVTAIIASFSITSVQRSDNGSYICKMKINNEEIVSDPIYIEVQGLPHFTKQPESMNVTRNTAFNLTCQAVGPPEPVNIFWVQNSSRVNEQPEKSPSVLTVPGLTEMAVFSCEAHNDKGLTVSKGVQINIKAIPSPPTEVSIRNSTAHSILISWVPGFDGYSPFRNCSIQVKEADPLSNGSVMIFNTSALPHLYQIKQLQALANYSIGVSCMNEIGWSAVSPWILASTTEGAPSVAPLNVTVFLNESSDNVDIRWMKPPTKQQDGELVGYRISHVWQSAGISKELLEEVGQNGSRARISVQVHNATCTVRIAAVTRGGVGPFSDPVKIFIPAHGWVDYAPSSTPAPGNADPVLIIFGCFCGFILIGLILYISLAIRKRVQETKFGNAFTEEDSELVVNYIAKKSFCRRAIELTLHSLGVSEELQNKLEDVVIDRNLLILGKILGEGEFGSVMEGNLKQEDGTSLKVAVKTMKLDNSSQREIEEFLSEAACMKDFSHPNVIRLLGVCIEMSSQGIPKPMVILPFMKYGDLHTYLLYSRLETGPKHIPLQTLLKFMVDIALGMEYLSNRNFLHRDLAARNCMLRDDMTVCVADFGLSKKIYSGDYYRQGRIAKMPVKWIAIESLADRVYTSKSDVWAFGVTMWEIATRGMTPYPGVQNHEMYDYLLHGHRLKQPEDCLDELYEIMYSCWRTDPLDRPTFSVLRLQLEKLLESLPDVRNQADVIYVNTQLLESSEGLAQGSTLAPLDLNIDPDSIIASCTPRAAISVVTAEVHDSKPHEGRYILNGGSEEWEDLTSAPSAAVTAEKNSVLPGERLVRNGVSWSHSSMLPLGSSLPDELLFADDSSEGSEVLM
Summary of the method: as §1

Sequence of ERK3 (Q16659 whole entry): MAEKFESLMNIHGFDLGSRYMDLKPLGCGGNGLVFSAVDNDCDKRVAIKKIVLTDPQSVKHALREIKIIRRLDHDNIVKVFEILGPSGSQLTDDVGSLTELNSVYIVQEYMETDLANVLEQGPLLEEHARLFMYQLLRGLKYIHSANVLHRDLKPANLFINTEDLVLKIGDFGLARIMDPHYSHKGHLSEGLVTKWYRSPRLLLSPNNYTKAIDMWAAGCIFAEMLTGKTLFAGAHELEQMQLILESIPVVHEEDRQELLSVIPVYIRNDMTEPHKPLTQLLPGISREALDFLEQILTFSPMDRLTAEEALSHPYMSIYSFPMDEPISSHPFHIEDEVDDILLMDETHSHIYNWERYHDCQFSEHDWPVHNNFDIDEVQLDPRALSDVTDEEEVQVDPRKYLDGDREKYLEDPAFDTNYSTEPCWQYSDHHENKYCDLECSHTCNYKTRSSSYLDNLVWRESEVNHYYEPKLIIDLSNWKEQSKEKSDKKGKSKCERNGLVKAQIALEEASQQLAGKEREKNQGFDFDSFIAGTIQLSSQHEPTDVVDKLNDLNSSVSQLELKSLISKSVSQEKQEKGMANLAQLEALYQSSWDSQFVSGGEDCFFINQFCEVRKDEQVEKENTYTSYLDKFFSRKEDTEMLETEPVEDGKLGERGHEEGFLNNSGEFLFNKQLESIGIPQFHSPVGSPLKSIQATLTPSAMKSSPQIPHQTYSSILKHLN

Q: `CNc1c(-c2cnn([C@H]3CCN(C(C)=O)C[C@@H]3F)c2)cnc2[nH]cc(Cl)c12` [Compound 77, 1-((3S,4S)-4-(4-(3-chloro-4-(methylamino)-1H-pyrrolo[2,3-b]pyridin-5-yl)-1H-pyrazol-1-yl)-3-fluoropiperidin-1-yl)ethan-1-one] was tested. Which remaining binding at 1 µM (ERK3) did it give?
A: 87%

Q: And the remaining binding at 1 µM (CLK2)?
A: 57%

Q: What about the remaining binding at 1 µM (KIT(V559D, V654A)) of the same molecule?
A: 53%

Q: And the remaining binding at 1 µM (PIM3)?
A: 99%

Q: What about the remaining binding at 1 µM (LRRK2) of the same molecule?
A: 15%

Q: What about the remaining binding at 1 µM (MYO3B) of the same molecule?
A: 96%

Q: And the remaining binding at 1 µM (PIP5K1A)?
A: 7.7%

Q: And the remaining binding at 1 µM (MERTK)?
A: 45%

Q: With `O=C(c1ccc(-c2cnc3[nH]cc(Cl)c3c2NC2CCCC2)cc1)N1CCC(N2CCOCC2)CC1` [Compound 101, (4-(3-chloro-4-(cyclopentylamino)-1H-pyrrolo[2,3-b]pyridin-5-yl)phenyl)(4-morpholinopiperidin-1-yl)methanone] as the molecule, how does the remaining binding at 1 µM (ERK3) read?
A: 100%

Q: And the remaining binding at 1 µM (CLK2)?
A: 65%

Q: What about the remaining binding at 1 µM (KIT(V559D, V654A)) of the same molecule?
A: 100%

Q: And the remaining binding at 1 µM (PIM3)?
A: 96%

Q: And the remaining binding at 1 µM (LRRK2)?
A: 33%

Q: What about the remaining binding at 1 µM (MYO3B) of the same molecule?
A: 93%

Q: And the remaining binding at 1 µM (PIP5K1A)?
A: 12%

Q: What about the remaining binding at 1 µM (MERTK) of the same molecule?
A: 41%

Q: What does the source list for `CNc1c(-c2ccc(C(=O)N3CCC(N4CCOCC4)CC3)cc2)cnc2[nH]cc(Cl)c12` [Compound 96, (4-(3-chloro-4-(methylamino)-1H-pyrrolo[2,3-b]pyridin-5-yl)phenyl)(4-morpholinopiperidin-1-yl)methanone]?
A: remaining binding at 1 µM (ERK3): 85%; remaining binding at 1 µM (CLK2): 11%; remaining binding at 1 µM (KIT(V559D, V654A)): 94%; remaining binding at 1 µM (PIM3): 100%; remaining binding at 1 µM (LRRK2): 2.6%; remaining binding at 1 µM (MYO3B): 73%; remaining binding at 1 µM (PIP5K1A): 16%; remaining binding at 1 µM (MERTK): 42%
